Reference: US8772282B2, “Tetrahydropyrrolothiazine compounds” (Eli Lilly and Company, priority 2012, dated 2014)
Where a name gives a salt, the structure may show the parent alone. Read-outs that look alike come from different tables or passages of the source.

Columns and labels:
beta-secretase = beta-secretase (Mus musculus (Mouse), UniProt P56818); assay: In Vivo Inhibition of Beta-Secretase in PDAPP mice
human BACE1 (1-460):Fc = human BACE1 (1-460):Fc (Homo sapiens (Human), UniProt P56817); assay: BACE1 FRET Assay; format: biochemical; details: Mean ± SEM; purified recombinant huBACE1:Fc, FRET substrate, pH 4.6
human BACE1 (1-460):Fc, sequence (P56817 22-460): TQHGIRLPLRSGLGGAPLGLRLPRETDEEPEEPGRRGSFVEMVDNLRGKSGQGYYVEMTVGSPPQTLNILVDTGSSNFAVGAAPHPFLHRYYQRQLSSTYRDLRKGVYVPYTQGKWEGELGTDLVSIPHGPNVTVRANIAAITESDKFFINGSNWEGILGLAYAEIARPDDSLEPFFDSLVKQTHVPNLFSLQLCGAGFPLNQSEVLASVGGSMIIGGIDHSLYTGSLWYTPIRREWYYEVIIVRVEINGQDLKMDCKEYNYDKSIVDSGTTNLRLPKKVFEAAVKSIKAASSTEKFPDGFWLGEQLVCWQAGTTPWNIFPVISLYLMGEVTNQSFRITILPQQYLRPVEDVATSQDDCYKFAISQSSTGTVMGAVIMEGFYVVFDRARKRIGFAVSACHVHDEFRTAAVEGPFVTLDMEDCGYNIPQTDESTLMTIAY

[1] = biological target: native, endogenous murine BACE1 (Mus musculus (Mouse), UniProt P56818); assay: PDAPP Primary Neuronal Assay (Abeta lowering, ELISA); format: cell-based; details: primary cortical neurons from PDAPP embryos, 24 h, Mean ± SEM
native, endogenous murine BACE1, sequence (P56818 46-501): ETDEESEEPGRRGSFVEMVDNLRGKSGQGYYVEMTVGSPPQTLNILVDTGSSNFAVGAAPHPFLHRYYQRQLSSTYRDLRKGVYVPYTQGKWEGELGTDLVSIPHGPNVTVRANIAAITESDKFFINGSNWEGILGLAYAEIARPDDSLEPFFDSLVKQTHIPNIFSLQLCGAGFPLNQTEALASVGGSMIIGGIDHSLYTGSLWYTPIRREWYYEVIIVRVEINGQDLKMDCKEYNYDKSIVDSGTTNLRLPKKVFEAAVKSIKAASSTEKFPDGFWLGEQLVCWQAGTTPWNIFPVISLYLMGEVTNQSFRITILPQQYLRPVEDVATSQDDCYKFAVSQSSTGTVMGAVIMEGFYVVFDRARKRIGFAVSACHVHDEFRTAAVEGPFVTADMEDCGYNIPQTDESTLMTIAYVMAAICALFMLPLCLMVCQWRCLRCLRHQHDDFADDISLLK

[2] = biological target: native endogenous human BACE1 (Homo sapiens (Human), UniProt P56817); assay: HEK293Swe Whole Cell Assay (Abeta lowering, ELISA); format: cell-based; details: HEK293/APP751sw cells, Mean ± SEM
native endogenous human BACE1, sequence (P56817 46-501): as the sequence (P56818 46-501) above, with S6P, I162V, I165L, T180S, A182V, V340I, A393L, H443Q counted along it

[3] = 10 mg/kg oral dose, 3 hours after administration, CSF
[4] = 10 mg/kg oral dose, 3 hours after administration, compared to vehicle-treated mice
[5] = 10 mg/kg oral dose, 3 hours, young female PDAPP mice, compared to vehicle-treated mice
[6] = Abeta 1-40, read-out: PDAPP Neuron A-beta (1-40) ELISA IC50
[7] = Abeta 1-42, read-out: PDAPP Neuron A-beta (1-42) ELISA IC50
[8] = Abeta 1-40 in conditioned media, read-out: HEK 293 Swe A-beta (1-40) ELISA IC50
[9] = 30 mg/kg oral dose, 3 hours after administration, compared to vehicle-treated mice

beta-secretase, sequence (P56818 46-501): as the sequence (P56818 46-501) above

CSF Abeta 1-x levels reduced (beta-secretase; [3])	Reduction of CSF sAPPbeta (beta-secretase; [3]) [%]	Abeta 1-x peptide levels reduced in brain cortex (beta-secretase; [4])	Abeta 1-x peptide levels reduced in brain hippocampus (beta-secretase; [4])	C99 levels reduced in brain cortex (beta-secretase; [5]) [%]	C99 levels reduced in brain hippocampus (beta-secretase; [5]) [%]	sAPPb levels reduced in brain cortex (beta-secretase; [5]) [%]	sAPPb levels reduced in brain hippocampus (beta-secretase; [5]) [%]	IC50 (human BACE1 (1-460):Fc) [nM]	IC50 [1, 6] [nM]	IC50 [1, 7] [nM]	IC50 [2, 8] [nM]	Abeta 1-x peptide levels reduced in brain cortex (beta-secretase; [9]) [%]	Abeta 1-x peptide levels reduced in brain hippocampus (beta-secretase; [9]) [%]	IC50 ([2]; Abeta 1-42 in conditioned media, read-out: HEK 293 Swe A-beta (1-42) ELISA IC50) [nM]	SMILES
approximately 80%	22	approximately 62%	approximately 51%	~63	~58	~34	~37	64.4	116	103	233				Cl.NC1=N[C@@]2(c3ccccc3)CN(c3ncc(F)cn3)C[C@H]2CS1 [Example 1, (4aR,7aS)-6-(5-Fluoropyrimidin-2-yl)-7a-phenyl-4,4a,5,7-tetrahydropyrrolo[3,4-d][1,3]thiazin-2-amine hydrochloride]
								166							NC1=N[C@@]2(c3ccc(F)s3)CN(c3ncccn3)C[C@H]2CS1 [Example 30, [(4aR,7aR)-7a-(5-Fluorothiophen-2-yl)-6-(pyrimidin-2-yl)-4,4a,5,6,7,7a-hexahydropyrrolo[3,4-d][1,3]thiazin-2-amine hydrochloride]
		approximately 23%	approximately 18%									~63	~51		Cl.N#Cc1ccc([C@]23CN(c4ncc(F)cn4)C[C@H]2CSC(N)=N3)s1 [Example 31, 5-[(4aR,7aR)-2-Amino-6-(5-fluoropyrimidin-2-yl)-4a,5,6,7-tetrahydropyrrolo[3,4-d][1,3]thiazin-7a(4H)-yl]thiophene-2-carbonitrile hydrochloride]
								91.2	378	245	345			356	NC1=N[C@@]2(c3ccc(F)s3)CN(c3ncc(F)cn3)C[C@H]2CS1 [Example 32, [(4aR,7aR)-6-(5-Fluoropyrimidin-2-yl)-7a-(5-fluorothiophen-2-yl)-4,4a,5,6,7,7a-hexahydropyrrolo[3,4-d][1,3]thiazin-2-amine hydrochloride]
